Patent US8575391B2, “5-substituted-2-phenylamino benzamides as MEK inhibitors” (priority 2004, dated 2013)
Converted amounts (≈) assume the structure as drawn.

Legend:
physchem = type: physicochemical; settings: aqueous buffer, thermodynamic from solid; 50 mM phosphate buffer (pH 6.5), room temperature (20° C.); read-out: Water solubility
in vitro = in vitro ADME; settings: liver microsomes; mouse liver microsome 1 mg protein/mL, 2 mM NADPH, pH 7.4, 37° C.; read-out: Stability against mouse liver microsome T1/2
[1] = test system: human non-small cell lung carcinoma cell line QG56; assay: cells; settings: QG-56, 96 h, read-out: Growth inhibitory activity against cancer cells QG56 IC50
Procedure: (§1) The growth inhibitory activities against cancer cells were measured using Cell Counting Kit-8 (Dojindo Laboratories).

[2] = test system: Human colon cancer cell line HT-29; assay: cells; settings: HT-29, 96 h, read-out: Growth inhibitory activity against cancer cells HT29 IC50
Procedure: as §1

Question: Which results are given for C#Cc1ccc(Nc2c(C(=O)NOCCO)cc(CN3OCCCC3=O)c(F)c2F)c(F)c1 [Compound G-4, 2-(4-Ethynyl-2-fluoro-phenylamino)-3,4-difluoro-N-(2-hydroxy-ethoxy)-5-(3-oxo-[1,2]oxadinan-2-ylmethyl)-benzamide]?
Answer: solubility at 2 h (physchem): 344 µM (≈ 159 µg/mL); half-life (in vitro): > 6 h; IC50 [1]: 21 nM; IC50 [2]: 5.7 nM
